# Results from ChEMBL document CHEMBL3875218, “Bifunctional conjugates with potent inhibitory activity towards cyclooxygenase and histone deacetylase” (Bioorg Med Chem, 2017).
# Activity calls are given as the source filed them. The calls are words filed in the database; no cut-off is given here.
# Key:
# [1] = test system: LNCaP; experiment: Induction of cell cycle arrest in human LNCAP cells assessed as accumulation at lesser G1 phase at 40 uM after 24 hrs by propidium iodide staining based FACS analysis (reference value: 1.59%); assay type: functional
# [2] = test system: LNCaP; experiment: Induction of cell cycle arrest in human LNCAP cells assessed as accumulation at S phase at 40 uM after 24 hrs by propidium iodide staining based FACS analysis (reference value: […]); assay type: functional
# [3] = test system: LNCaP; experiment: Induction of cell cycle arrest in human LNCAP cells assessed as accumulation at G1 phase at 40 uM after 24 hrs by propidium iodide staining based FACS analysis (reference value: 69.5%); assay type: functional
# [4] = test system: LNCaP; experiment: Induction of cell cycle arrest in human LNCAP cells assessed as accumulation at greater G2 phase at 40 uM after 24 hrs by propidium iodide staining based FACS analysis (reference value: 0.20%); assay type: functional
# [5] = test system: LNCaP; experiment: Induction of cell cycle arrest in human LNCAP cells assessed as accumulation at G2 phase at 40 uM after 24 hrs by propidium iodide staining based FACS analysis (reference value: 1.08%); assay type: functional
# [6] = Cytotoxicity against human DU145 cells assessed as cell growth inhibition after 72 hrs by MTT assay; assay type: functional, cell-based; conditions: DU-145, 72 h
# [7] = test system: LNCaP; experiment: Induction of cell cycle arrest in human LNCAP cells assessed as accumulation at greater G2 phase at 2.5 uM after 24 hrs by propidium iodide staining based FACS analysis (reference value: 0.20%); assay type: functional
# [8] = Cytotoxicity against human LNCAP cells assessed as cell growth inhibition after 72 hrs by MTT assay; assay type: functional, cell-based
# [9] = target: Histone deacetylase 3 (Homo sapiens, UniProt O15379); experiment: Inhibition of HDAC3 (unknown origin) after 5 hrs by SAMDI mass spectroscopic analysis
# Chain of Histone deacetylase 3 (O15379 whole entry): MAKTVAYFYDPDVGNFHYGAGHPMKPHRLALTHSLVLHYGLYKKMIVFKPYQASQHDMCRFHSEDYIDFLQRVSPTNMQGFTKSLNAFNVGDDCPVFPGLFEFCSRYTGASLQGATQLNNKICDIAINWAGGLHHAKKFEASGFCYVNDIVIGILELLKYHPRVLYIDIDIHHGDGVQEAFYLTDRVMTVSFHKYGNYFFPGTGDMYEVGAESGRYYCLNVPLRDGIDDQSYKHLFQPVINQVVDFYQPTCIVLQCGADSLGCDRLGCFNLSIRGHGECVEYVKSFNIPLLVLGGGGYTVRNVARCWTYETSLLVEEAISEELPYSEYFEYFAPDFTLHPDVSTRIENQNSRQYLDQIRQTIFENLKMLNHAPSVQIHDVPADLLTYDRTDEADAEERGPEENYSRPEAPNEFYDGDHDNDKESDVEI
# [10] = test system: LNCaP; experiment: Induction of cell cycle arrest in human LNCAP cells assessed as accumulation at lesser G1 phase at 2.5 uM after 24 hrs by propidium iodide staining based FACS analysis (reference value: 1.59%); assay type: functional
# [11] = Cytotoxicity against human A549 cells assessed as cell growth inhibition after 72 hrs by MTT assay; assay type: functional, cell-based; conditions: A549, 72 h
# [12] = Cytotoxicity against African green monkey Vero cells assessed as cell growth inhibition after 72 hrs by MTT assay; assay type: toxicity, cell-based; conditions: African green monkey (Chlorocebus sabaeus)
# [13] = target: T1, Protein deacetylase HDAC6 (Homo sapiens, UniProt Q9UBN7); experiment: Inhibition of HDAC6 (unknown origin) after 20 hrs by SAMDI mass spectroscopic analysis
# T1 sequence (Q9UBN7 whole entry): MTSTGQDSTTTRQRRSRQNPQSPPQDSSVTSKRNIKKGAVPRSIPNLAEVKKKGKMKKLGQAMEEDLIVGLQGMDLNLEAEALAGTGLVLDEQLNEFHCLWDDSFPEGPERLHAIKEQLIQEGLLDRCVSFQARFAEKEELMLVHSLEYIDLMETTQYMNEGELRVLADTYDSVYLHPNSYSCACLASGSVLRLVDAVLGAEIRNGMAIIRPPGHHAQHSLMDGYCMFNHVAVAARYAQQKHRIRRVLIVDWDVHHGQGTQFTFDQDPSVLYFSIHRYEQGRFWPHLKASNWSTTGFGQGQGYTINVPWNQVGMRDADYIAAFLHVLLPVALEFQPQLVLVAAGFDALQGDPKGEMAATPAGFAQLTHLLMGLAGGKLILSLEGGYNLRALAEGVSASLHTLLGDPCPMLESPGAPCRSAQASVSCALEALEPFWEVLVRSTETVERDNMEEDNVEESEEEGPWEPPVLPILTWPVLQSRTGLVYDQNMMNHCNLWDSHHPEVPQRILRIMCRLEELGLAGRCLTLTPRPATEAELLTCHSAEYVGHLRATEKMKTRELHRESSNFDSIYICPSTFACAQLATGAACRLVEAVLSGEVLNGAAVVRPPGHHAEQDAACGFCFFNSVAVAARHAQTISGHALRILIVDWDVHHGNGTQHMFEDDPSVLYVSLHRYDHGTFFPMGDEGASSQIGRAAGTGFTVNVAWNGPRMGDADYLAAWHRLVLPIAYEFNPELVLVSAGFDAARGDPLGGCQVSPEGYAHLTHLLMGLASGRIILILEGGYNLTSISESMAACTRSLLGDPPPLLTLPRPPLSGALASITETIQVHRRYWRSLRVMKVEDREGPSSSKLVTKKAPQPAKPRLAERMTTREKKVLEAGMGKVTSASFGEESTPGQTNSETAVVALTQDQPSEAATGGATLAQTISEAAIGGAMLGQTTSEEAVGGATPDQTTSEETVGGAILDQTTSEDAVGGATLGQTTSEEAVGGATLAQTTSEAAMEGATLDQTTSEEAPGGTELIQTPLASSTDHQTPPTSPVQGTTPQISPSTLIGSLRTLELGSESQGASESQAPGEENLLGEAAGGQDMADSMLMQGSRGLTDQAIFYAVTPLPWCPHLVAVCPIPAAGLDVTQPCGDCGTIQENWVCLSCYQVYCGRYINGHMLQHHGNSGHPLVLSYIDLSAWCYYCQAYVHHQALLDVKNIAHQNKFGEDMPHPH
# [14] = test system: LNCaP; experiment: Inhibition of class 1 HDAC in human LNCAP cells assessed as acetylated histone H4 accumulation at 1.5 uM after 24 hrs by Western blot analysis; assay type: cell-based
# [15] = test system: LNCaP; experiment: Induction of cell cycle arrest in human LNCAP cells assessed as accumulation at G1 phase at 2.5 uM after 24 hrs by propidium iodide staining based FACS analysis (reference value: 69.5%); assay type: functional
# [16] = test system: LNCaP; experiment: Induction of cell cycle arrest in human LNCAP cells assessed as accumulation at S phase at 2.5 uM after 24 hrs by propidium iodide staining based FACS analysis (reference value: […]); assay type: functional
# [17] = Cytotoxicity against human MCF7 cells assessed as cell growth inhibition after 72 hrs by MTT assay; assay type: functional, cell-based; conditions: MCF7, 72 h
# [18] = Cytotoxicity against human HCT116 cells assessed as cell growth inhibition after 72 hrs by MTT assay; assay type: functional, cell-based; conditions: HCT-116, 72 h
# [19] = test system: LNCaP; experiment: Inhibition of HDAC in human LNCAP cells assessed as down regulation of COX2 expression at 1.5 uM after 24 hrs by Western blot analysis; assay type: cell-based
# [20] = target: T2, Histone deacetylase 8 (Homo sapiens, UniProt Q9BY41); experiment: Inhibition of HDAC8 (unknown origin) after 2.5 hrs by SAMDI mass spectroscopic analysis
# T2 sequence (Q9BY41 whole entry): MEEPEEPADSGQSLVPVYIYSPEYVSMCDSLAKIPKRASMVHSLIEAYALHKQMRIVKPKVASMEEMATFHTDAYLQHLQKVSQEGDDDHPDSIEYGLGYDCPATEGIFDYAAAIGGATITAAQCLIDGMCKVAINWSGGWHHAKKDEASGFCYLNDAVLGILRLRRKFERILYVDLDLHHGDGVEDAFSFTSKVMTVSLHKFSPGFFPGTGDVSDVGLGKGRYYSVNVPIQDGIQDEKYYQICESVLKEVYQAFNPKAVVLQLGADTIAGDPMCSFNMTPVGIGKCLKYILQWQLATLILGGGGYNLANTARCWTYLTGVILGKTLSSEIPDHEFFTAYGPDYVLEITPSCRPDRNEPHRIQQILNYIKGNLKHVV
# [21] = target: Histone deacetylase 2 (Homo sapiens, UniProt Q92769); experiment: Inhibition of HDAC2 (unknown origin) after 24 hrs by SAMDI mass spectroscopic analysis
# Chain of Histone deacetylase 2 (Q92769 whole entry): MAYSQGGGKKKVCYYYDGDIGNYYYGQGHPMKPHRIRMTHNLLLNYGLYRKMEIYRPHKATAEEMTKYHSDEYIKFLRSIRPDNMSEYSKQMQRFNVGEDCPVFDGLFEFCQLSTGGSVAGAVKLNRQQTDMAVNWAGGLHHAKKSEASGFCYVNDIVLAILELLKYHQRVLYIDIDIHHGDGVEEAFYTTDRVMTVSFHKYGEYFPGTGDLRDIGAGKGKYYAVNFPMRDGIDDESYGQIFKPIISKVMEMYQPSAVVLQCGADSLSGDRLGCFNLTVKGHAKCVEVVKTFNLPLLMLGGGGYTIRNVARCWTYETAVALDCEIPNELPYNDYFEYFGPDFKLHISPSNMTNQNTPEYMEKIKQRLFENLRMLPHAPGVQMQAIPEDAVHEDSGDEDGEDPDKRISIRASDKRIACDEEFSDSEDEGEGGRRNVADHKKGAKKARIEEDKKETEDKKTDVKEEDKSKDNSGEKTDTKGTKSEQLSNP
# [22] = target: Histone deacetylase 1 (Homo sapiens, UniProt Q13547); experiment: Inhibition of HDAC1 (unknown origin) after 24 hrs by SAMDI mass spectroscopic analysis
# Chain of Histone deacetylase 1 (Q13547 whole entry): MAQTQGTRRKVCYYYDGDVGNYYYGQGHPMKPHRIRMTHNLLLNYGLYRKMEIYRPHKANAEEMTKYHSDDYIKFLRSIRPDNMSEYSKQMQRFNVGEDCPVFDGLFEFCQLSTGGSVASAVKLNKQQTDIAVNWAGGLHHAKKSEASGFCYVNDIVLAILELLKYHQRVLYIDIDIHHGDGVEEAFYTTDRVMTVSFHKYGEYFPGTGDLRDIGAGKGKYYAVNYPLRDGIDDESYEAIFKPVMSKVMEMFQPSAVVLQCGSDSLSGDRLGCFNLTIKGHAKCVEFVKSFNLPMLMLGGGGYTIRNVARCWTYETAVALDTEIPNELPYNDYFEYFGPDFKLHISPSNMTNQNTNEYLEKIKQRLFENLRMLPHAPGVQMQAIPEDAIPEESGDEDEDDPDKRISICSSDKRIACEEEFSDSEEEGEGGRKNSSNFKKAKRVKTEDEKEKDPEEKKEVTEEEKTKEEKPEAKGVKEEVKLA
# [23] = target: T3, Prostaglandin G/H synthase 2 (Homo sapiens) (UniProt P35354); experiment: Inhibition of recombinant human COX2 at 10 uM using arachidonic acid as substrate preincubated for 15 mins followed by substrate addition for 2 mins by Cayman based fluorescence assay
# T3 sequence (whole entry): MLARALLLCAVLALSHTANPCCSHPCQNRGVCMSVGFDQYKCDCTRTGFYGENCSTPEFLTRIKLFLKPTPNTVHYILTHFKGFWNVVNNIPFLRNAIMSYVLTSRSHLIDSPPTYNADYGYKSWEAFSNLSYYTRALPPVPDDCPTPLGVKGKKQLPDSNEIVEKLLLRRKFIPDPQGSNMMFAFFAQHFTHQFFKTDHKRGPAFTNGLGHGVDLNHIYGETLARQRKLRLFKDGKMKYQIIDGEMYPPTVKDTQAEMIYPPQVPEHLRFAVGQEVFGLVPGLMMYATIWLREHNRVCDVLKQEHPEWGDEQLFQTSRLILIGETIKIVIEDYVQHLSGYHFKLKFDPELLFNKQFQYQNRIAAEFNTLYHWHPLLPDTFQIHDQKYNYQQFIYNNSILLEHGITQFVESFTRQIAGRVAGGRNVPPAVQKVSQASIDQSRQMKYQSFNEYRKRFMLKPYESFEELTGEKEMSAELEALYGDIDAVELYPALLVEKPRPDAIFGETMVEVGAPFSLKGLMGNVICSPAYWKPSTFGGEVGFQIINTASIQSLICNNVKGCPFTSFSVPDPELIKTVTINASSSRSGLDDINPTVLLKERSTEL
# [24] = test system: BEAS2B; conditions: Homo sapiens, at 1 µM
# Description: Inhibition of HDAC in human BEAS2B cells assessed as reduction of NTHi-induced NFkappaB activation at 1 uM preincubated for 1 hr followed by NTHi stimulation for 5 hrs by luciferase reporter gene assay
# [25] = target: T4, Protein deacetylase HDAC6 (Homo sapiens) (UniProt Q9UBN7); experiment: Inhibition of HDAC6 in human LNCAP cells assessed as acetylated tubulin accumulation in cytosol at 1.5 uM after 24 hrs by Western blot analysis; assay type: cell-based
# T4 sequence (whole entry): T1 sequence (Q9UBN7 whole entry)
# [26] = Cytotoxicity against human HeLa cells assessed as cell growth inhibition after 72 hrs by MTT assay
# [27] = test system: LNCaP; experiment: Induction of cell cycle arrest in human LNCAP cells assessed as accumulation at G2 phase at 2.5 uM after 24 hrs by propidium iodide staining based FACS analysis (reference value: 1.08%); assay type: functional
# [28] = Cytotoxicity against human MCF7 cells assessed as cell growth inhibition at 100 uM after 72 hrs by MTT assay; assay type: functional; conditions: MCF7, 72 h, read-out: GI
# [29] = target: T5, Prostaglandin G/H synthase 2 (Homo sapiens, UniProt P35354); experiment: Inhibition of recombinant human COX2 using arachidonic acid as substrate preincubated for 15 mins followed by substrate addition for 2 mins by Cayman based fluorescence assay
# T5 sequence (P35354 whole entry): T3 sequence (whole entry)
# [30] = test system: LNCaP; conditions: Homo sapiens, at 10 µM
# Description: Inhibition of HDAC in human LNCAP cells assessed as down regulation of androgen receptor expression at 10 uM after 24 hrs by Western blot analysis
Structure (SMILES),IC50 [9] [nM],IC50 [13] [nM],IC50 [20] [nM],IC50 [21] [nM],IC50 [22] [nM],inhibition [23] [%],Activity [1] [%],Activity [2] [%],Activity [3] [%],Activity [4] [%],Activity [7] [%],Activity [10] [%],Activity [15] [%],Activity [16] [%],IC50 [18] [nM],inhibition [24],Activity [27] [%],inhibition of growth at 100 µM [28] [%],other results
Cc1ccc(-c2cc(C(F)(F)F)nn2-c2ccc(S(N)(=O)=O)cc2)cc1 [CELECOXIB],,,,,,,0.59,28.4,69.2,0.35,,,,,,,,,Activity [5]: 0.85%
Cc1ccc(-c2cc(C(=O)NCCCCCCC(=O)NO)nn2-c2ccc(S(C)(=O)=O)cc2)cc1,338,50,345,,261,60.2,,,,,0.21,0.029,85.9,13.8,,Active,0.5,,IC50 [29]: 4440 nM
COc1ccc2c(c1)c(CC(=O)O)c(C)n2C(=O)c1ccc(Cl)cc1 [INDOMETHACIN],,,,,,,2.81,23.5,71.5,0.88,,,,,,,,5.2,inhibition [30]: Active

# Now from value to compound, other results behind:
IC50 [9] [nM],IC50 [13] [nM],IC50 [20] [nM],IC50 [21] [nM],IC50 [22] [nM],inhibition [23] [%],Structure (SMILES),Activity [1] [%],Activity [2] [%],Activity [3] [%],Activity [4] [%],Activity [7] [%],Activity [10] [%],Activity [15] [%],Activity [16] [%],IC50 [18] [nM],inhibition [24],Activity [27] [%],inhibition of growth at 100 µM [28] [%],other results
35,10,135,407,89,50.8,COC(=O)Cc1c(C)n(Cc2ccc(-c3cn(CCCCCCC(=O)NO)nn3)cc2)c2ccc(OC)cc12,,,,,2.06,0.053,46.7,47.1,1670,Active,1.87,,IC50 [6]: 8170 nM; IC50 [8]: 1350 nM; IC50 [11]: 8220 nM; IC50 at 72 h [12]: 5820 nM; inhibition [14]: Active; IC50 [17]: 9610 nM; inhibition [19]: Active; inhibition [25]: Active; IC50 [26]: 4020 nM
59,22,116,302,111,40.6,COc1ccc2c(c1)c(CC(=O)O)c(C)n2Cc1ccc(-c2cn(CCCCCCC(=O)NO)nn2)cc1,,,,,,,,,9900,,,47.8,
